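Interpolation was linear, between the two tested concentrations surrounding the appropriate level; five concentrations were tested over 48 hours in 96-well plates. TGI denotes the concentration required for complete inhibition of growth.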
Columns and labels:
Assay in all cases: NCI anticancer screen, dose series, 48 h
[1] = system: SK-MEL-5 melanoma
[2] = system: MDA-N
[3] = system: OVCAR-4 ovarian
[4] = system: SK-OV-3 ovarian
[5] = system: HL-60(TB) leukemia
[6] = system: MDA-MB-435
[7] = system: CCRF-CEM leukemia
[8] = system: SK-MEL-28 melanoma
[9] = system: NCI-H460 lung
[10] = system: COLO 205 colon
[11] = system: RXF 393 renal
[12] = system: NCI-H23 lung
[13] = system: SW-620 colon
[14] = system: MCF7 breast
[15] = system: OVCAR-3 ovarian
[16] = system: M14 melanoma
[17] = system: SF-295 CNS
[18] = system: SK-MEL-2 melanoma
[19] = system: HCT-116 colon
[20] = system: NCI-H226 lung
[21] = system: UACC-257 melanoma
[22] = system: SR leukemia
[23] = system: KM12 colon
[24] = system: LOX IMVI melanoma
[25] = system: A498 renal
[26] = system: SF-539 CNS
[27] = system: U251 CNS
[28] = system: UO-31 renal
[29] = system: MALME-3M melanoma
[30] = system: HCC-2998 colon
[31] = system: T-47D breast
[32] = system: MOLT-4 leukemia
[33] = system: MDA-MB-231 breast
[34] = system: NCI-H522 lung
[35] = system: OVCAR-5 ovarian
[36] = system: IGROV1 ovarian
[37] = system: CAKI-1 renal
[38] = system: RPMI-8226 leukemia
[39] = system: TK-10 renal
[40] = system: HT29 colon
[41] = system: UACC-62 melanoma
[42] = system: HCT-15 colon
[43] = system: OVCAR-8 ovarian
[44] = system: SF-268 CNS
[45] = system: EKVX NSCLC
[46] = system: BT-549 breast
[47] = system: SN12C renal
[48] = system: HOP-92 NSCLC
[49] = system: 786-0 renal
[50] = system: HS 578T breast
[51] = system: HOP-62 NSCLC
[52] = system: DU-145 prostate
[53] = system: ACHN renal
[54] = system: SNB-75 CNS
[55] = system: SNB-19 CNS
[56] = system: A549 NSCLC
[57] = system: K-562 leukemia
[58] = system: NCI/ADR-RES ovarian
[59] = system: PC-3 prostate

Measured: TGI

NC(=O)c1ccc2c(c1)S(=O)(=O)c1ccccc1C2=O
> 100 µM: [1] | [2] | [3] | [4] | [5] | [6] | [7] | [8] | [9] | [10] | [11] | [12] | [13] | [14] | [15] | [16] | [17] | [18] | [19] | [20] | [21] | [22] | [23] | [24] | [25] | [26] | [27] | [28] | [29] | [30] | [31] | [32] | [33] | [34] | [35] | [36] | [37] | [38] | [39] | [40] | [41] | [42] | [43] | [44] | [45] | [46] | [47] | [48] | [49] | [50] | [51] | [52] | [53] | [54] | [55] | [56] | [57] | [58] | [59]

Cc1nc2ccc(S(=O)(=O)O)cc2c(=O)n1-c1ccc(C(=O)NN2C(=O)C(Cl)C2c2ccccc2O)cc1 (stereo not given)
> 100 µM: [1] | [2] | [3] | [4] | [5] | [6] | [7] | [8] | [10] | [11] | [12] | [13] | [14] | [15] | [16] | [17] | [18] | [19] | [20] | [21] | [22] | [23] | [24] | [25] | [26] | [27] | [28] | [29] | [31] | [32] | [33] | [34] | [35] | [36] | [37] | [38] | [39] | [40] | [42] | [43] | [44] | [45] | [46] | [47] | [48] | [49] | [50] | [51] | [52] | [53] | [54] | [55] | [56] | [57] | [58] | [59]

Source: PubChem BioAssay (NCI)
